In ChEMBL document CHEMBL5143727, “Cytotoxic and Antibacterial Isomalabaricane Terpenoids from the Sponge Rhabdastrella globostellata” (J Nat Prod, 2022):
In brackets after ≈: the same amount, converted by molar mass. Activity calls are given as the source filed them. The rule behind the calls is not given here.

Experiments:
HL-60 = test: Cytotoxicity against human HL-60 cells harboring wild type FLT3 assessed as inhibition of cell proliferation incubated for 72 hrs by MTT assay; assay type: functional, cell-based; conditions: for IC50: HL-60, 72 h
Streptococcus pyogenes = test: Antibacterial activity against Streptococcus pyogenes ATCC 12344 assessed as bacterial growth inhibition incubated for 24 hrs by microdilution assay; assay type: functional
MV4-11 = test: Cytotoxicity against human MV4-11 cells harboring FLT3-ITD mutant assessed as inhibition of cell proliferation incubated for 72 hrs by MTT assay; assay type: functional, cell-based; conditions: for IC50: MV4-11, 72 h
U-87 MG [1] = test: Cytotoxicity against human U87 cells harboring wild type IDH1 assessed as inhibition of cell proliferation incubated for 72 hrs by MTT assay; assay type: functional, cell-based; conditions: U-87MG ATCC
U-87 MG [2] = test: Cytotoxicity against human U87 cells harboring IDH1-R132H mutant assessed as inhibition of cell proliferation incubated for 72 hrs by MTT assay; assay type: functional, cell-based; conditions: U-87MG ATCC
HCT-116 [3] = test: Cytotoxicity against human HCT-116 cells harboring wild type p53 assessed as inhibition of cell proliferation incubated for 72 hrs by MTT assay; assay type: functional, cell-based; conditions: for IC50: HCT-116, 72 h
HCT-116 [4] = test: Cytotoxicity against human HCT-116 cells harboring p53-/- assessed as inhibition of cell proliferation incubated for 72 hrs by MTT assay; assay type: functional, cell-based
Staphylococcus aureus = test: Antibacterial activity against Staphylococcus aureus USA300 LAC assessed as bacterial growth inhibition incubated for 24 hrs by microdilution assay; assay type: functional, organism-based

Row | MIC (Streptococcus pyogenes) [mg/L] | Compound | Activity (U-87 MG [1]) | Activity (U-87 MG [2]) | Activity (HCT-116 [4]) | Activity (Staphylococcus aureus) | also measured
1 | 2 (≈ 3.95 µM) | CC(=O)O[C@H]1CC[C@@]2(C)[C@@H](CC[C@]3(C)\C(=C(C)/C=C/C=C(\C)c4ccc(C)c(=O)o4)C(=O)C[C@@H]23)C1(C)C [STELLETTIN C] | Active | Active | Active |  | Activity (HL-60): Active; Activity (MV4-11): Active; Activity (HCT-116 [3]): Active
2 | 0.4 (≈ 0.888 µM) | CC(=O)/C=C\C(=O)/C(C)=C/C=C/C(C)=C1\C(=O)C[C@H]2[C@@]3(C)CCC(=O)C(C)(C)[C@@H]3CC[C@]12C [ISOGEODITIN A] |  |  |  | Active | 
3 | 0.9 (≈ 2 µM) | CC(=O)/C=C/C(=O)/C(C)=C/C=C/C(C)=C1\C(=O)C[C@H]2[C@@]3(C)CCC(=O)C(C)(C)[C@@H]3CC[C@]12C [GEODITIN A] |  |  |  | Active | 
4 | 2 (≈ 3.95 µM) | CC(=O)O[C@H]1CC[C@@]2(C)[C@@H](CC[C@]3(C)/C(=C(C)/C=C/C=C(\C)c4ccc(C)c(=O)o4)C(=O)C[C@@H]23)C1(C)C [STELLETTIN D] | Active | Active | Active |  | IC50 (HL-60): 0.015 µM; IC50 (MV4-11): 0.39 µM; IC50 (HCT-116 [3]): 2.35 µM
5 | 0.1 (≈ 0.222 µM) | CC(=O)/C=C\C(=O)/C(C)=C/C=C/C(C)=C1/C(=O)C[C@H]2[C@@]3(C)CCC(=O)C(C)(C)[C@@H]3CC[C@]12C |  |  |  | Active | 
6 |  | CC1=CC[C@@H](/C(C)=C/C=C/C(C)=C2\C(=O)C[C@H]3[C@@]4(C)CCC(=O)C(C)(C)[C@@H]4CC[C@]23C)OC1=O | Active | Active | Active |  | Activity (HL-60): Active; Activity (MV4-11): Active; Activity (HCT-116 [3]): Active
7 |  | CC(=O)O[C@H]1CC[C@@]2(C)[C@@H](CC[C@]3(C)/C(=C(C)/C=C/C=C(\C)[C@H]4CC=C(C)C(=O)O4)C(=O)C[C@@H]23)C1(C)C |  |  | Active |  | IC50 (HL-60): 0.042 µM; IC50 (MV4-11): 0.28 µM; IC50 (HCT-116 [3]): 2.49 µM
8 | 1 (≈ 2.02 µM) | CC(=O)/C=C\C(=O)/C(C)=C/C=C/C(C)=C1/C(=O)C[C@H]2[C@@]3(C)CC[C@H](OC(C)=O)C(C)(C)[C@@H]3CC[C@]12C |  |  |  | Active | 
9 | 1.9 (≈ 3.84 µM) | CC(=O)/C=C\C(=O)/C(C)=C/C=C/C(C)=C1\C(=O)C[C@H]2[C@@]3(C)CC[C@H](OC(C)=O)C(C)(C)[C@@H]3CC[C@]12C [ISOGEODITIN B] |  |  |  |  | 
10 | 1.8 (≈ 3.99 µM) | CC(=O)/C=C/C(=O)/C(C)=C/C=C/C(C)=C1/C(=O)C[C@H]2[C@@]3(C)CCC(=O)C(C)(C)[C@@H]3CC[C@]12C |  |  |  | Active | 
11 | 1.8 (≈ 3.89 µM) | C\C(=C/C=C/C(C)=C1/C(=O)C[C@H]2[C@@]3(C)CCC(=O)C(C)(C)[C@@H]3CC[C@]12C)c1ccc(C)c(=O)o1 [STELLETIN A] | Active | Active | Active |  | Activity (HL-60): Active; Activity (MV4-11): Active; Activity (HCT-116 [3]): Active
